Results from patent US11969476B2, “Antibody molecule-drug conjugates and uses thereof” (priority 2020, dated 2024).
Converted amounts (≈) assume the structure as drawn. Like-named read-outs stand apart in the source and are kept apart here. Square brackets hold non-standard residues; d marks the D form. Ends that are not written are not given here. Peptide text beside a SMILES is read from it.

Columns and labels:
[1] = tested on: Pae 27853; experiment: MIC determination (CLSI, 2-fold serial dilutions); type: cell-based, Pseudomonas aeruginosa
Protocol: (§1) Assessment of Antimicrobial Activity. […] All plates were placed at 37° C. overnight. After 18 hours the plates were read using a mirrored plate reader and reflected incandescent light. […] Wells at and above the MIC should appear void of growth when read by eye.

[2] = tested on: Pae 39324; experiment: MIC determination (CLSI, 2-fold serial dilutions); type: cell-based, Pseudomonas aeruginosa
Protocol: as §1

[3] = tested on: Eco 25922; experiment: MIC determination (CLSI, 2-fold serial dilutions); type: cell-based, E. coli
Protocol: as §1

[4] = tested on: Sau 29213; experiment: MIC determination (CLSI, 2-fold serial dilutions); type: cell-based, S. Aureus
Protocol: as §1

[5] = MIC in human serum (hsMIC) relative to MIC; type: cell-based; conditions: NA, no active in human serum
Protocol: In an embodiment, the MIC is determined in the presence of phosphate-buffered saline (PBS). In an embodiment, the MIC or hsMIC is determined on per ADC basis. In an embodiment, the MIC or hsMIC is determined on per payload or antimicrobial peptide basis.

[6] = tested on: human red blood cells
[7] = tested on: P. aeruginosa BAA-2108; design: key: R = Resistant; S = Suspectible; I = Intermediate; NT = Note Tested; conditions: strain BAA-2108, isolated from human sputum; cited from earlier work
[8] = tested on: P. aeruginosa BAA-2109; design: key: R = Resistant; S = Suspectible; I = Intermediate; NT = Note Tested; conditions: strain BAA-2109, isolated from human sputum; cited from earlier work
[9] = tested on: P. aeruginosa BAA-2110; design: key: R = Resistant; S = Suspectible; I = Intermediate; NT = Note Tested; conditions: strain BAA-2110, isolated from human sputum; cited from earlier work
[10] = tested on: P. aeruginosa BAA-2111; design: key: R = Resistant; S = Suspectible; I = Intermediate; NT = Note Tested; conditions: strain BAA-2111, isolated from human sputum; cited from earlier work
[11] = tested on: P. aeruginosa BAA-2112; design: key: R = Resistant; S = Suspectible; I = Intermediate; NT = Note Tested; conditions: strain BAA-2112, isolated from human sputum; cited from earlier work
[12] = tested on: P. aeruginosa BAA-2113; conditions: strain BAA-2113, isolated from human sputum; cited from earlier work
[13] = tested on: P. aeruginosa BAA-2114; design: key: R = Resistant; S = Suspectible; I = Intermediate; NT = Note Tested; conditions: strain BAA-2114, isolated from human sputum; cited from earlier work
[14] = Cytotoxicity to mammalian cells; conditions: human, 293T cells
[15] = in words, human serum
Protocol: Assessment of Serum Stability. […] Twenty μl of each test article was placed in a 2.0 ml round bottom microfuge tube. […] Assay tubes were placed at 37° C. in a rotating rack between time-points. […] Supernatant from each tube was collected and frozen at −20° C. for analysis. Samples were harvested and processed at various time-points up to 6 hours.

[16] = tested on: 293T; experiment: Cytotoxicity to mammalian cells; conditions: in words
[17] = tested on: human red blood cells; experiment: Red blood cell hemolysis (MLC, PLC); conditions: in words
[18] = tested on: P. aeruginosa; experiment: MIC testing of antimicrobial peptides (screen); type: cell-based; conditions: in words
Source text: Initially, a bioinformatics-driven workflow (mine public database of AMPs (YADAMP)→cluster AMPs by properties→evaluate activity and toxicity) was utilized to select AMPs for experimental characterization to identify potent payloads with a high therapeutic index (FIG. 7A). […] To facilitate identification of AMPs for use in an ADC, a screening strategy that clustered peptides based on their underlying physicochemical properties was implemented, followed by characterization of representative members from each cluster. Here YADAMP, a database of AMPs that contains over 2,500 sequences of peptides with reported antibacterial activity, was used. Clustering was performed by utilizing a K-means algorithm using calculated properties that have been reported to be relevant to antimicrobial activity (peptide length, predicted helicity, predicted hydropathy, percentage of select amino acids [Lys, Arg, Trp, Cys, His], and charge at pH7, pH5, and pH9). […] Once potent peptides with favorable characteristics were identified, the remaining members of the corresponding clusters were then selected for experimental characterization. […]
Assessment of Antimicrobial Activity. […] After 18 hours the plates were read using a mirrored plate reader and reflected incandescent light. […] Wells at and above the MIC should appear void of growth when read by eye.

[19] = tested on: P. aeruginosa PA14; experiment: Acute (immunocompetent) lung infection model; conditions: immunocompetent mice, single intraperitoneal dose 15 mg/kg three hours post-infection, 100 hours
[20] = numbers in parentheses are molar equivalents

## CC(C)(O/N=C(\C(=O)N[C@@H]1C(=O)N2C(C(=O)[O-])=C(C[n+]3ccccc3)CS[C@H]12)c1csc(N)n1)C(=O)O [Ceftazidime]
[1]
  MIC Pae 27853: 1 μg,/ml
[1]; [20]
  MIC Pae 27853, molar equivalents: (1.8)
[2]
  MIC Pae 39324: 1 μg,/ml
[2]; [20]
  MIC Pae 39324, molar equivalents: (1.8)
[3]
  MIC Eco 25922: 0.25 μg,/ml
[3]; [20]
  MIC Eco 25922, molar equivalents: (0.5)
[4]
  MIC Sau 29213: 4 μg,/ml
[4]; [20]
  MIC Sau 29213, molar equivalents: (7.3)
[5]
  Human Serum hsMIC/MIC: 1
[6]
  Hemolysis MLC/MIC: 16
  Hemolysis PLC/MIC: 8
[7]
  antibiotic resistance phenotype: S
[8]
  antibiotic resistance phenotype: S
[9]
  antibiotic resistance phenotype: S
[10]
  antibiotic resistance phenotype: S
[11]
  antibiotic resistance phenotype: S
[12]
  antibiotic resistance phenotype: I/R
[13]
  antibiotic resistance phenotype: S
[14]; Cytotox CC50, concentration at which 50% cytotoxicity of mammalian cells is observed
  CC50: 550 µg/mL (≈ 1010 µM)

## CC[C@@H](C)[C@@H](NC(=O)[C@H](NC(=O)[C@@H](CCCNC(=N)N)NC(=O)[C@H]1CCCN1C(=O)[C@@H](CCCCN)NC(=O)[C@@H](CCCCN)NC(=O)[C@@H](Cc1ccccc1)NC(=O)[C@@H](Cc1ccccc1)NC(=O)[C@@H](CCC(=O)O)NC(=O)[C@@H](CCCCN)NC(=O)[C@@H](C)NC(=O)[C@@H](CCCNC(=N)N)NC(=O)[C@@H](CCCCN)NC(=O)[C@@H](CCCCN)NC(=O)[C@H](NC(=O)[C@@H](CO)NC(=O)[C@@H](CCCCN)NC(=O)[C@@H](CCCCN)NC(=O)[C@@H](CC(C)C)NC(=O)[C@@H](CCCCN)NC(=O)[C@@H](CCCNC(=N)N)NC(=O)[C@@H](Cc1ccccc1)NC(=O)[C@@H](Cc1ccccc1)NC(=O)[C@@H](CCCCN)NC(=O)CNC(=O)CNC(=O)CN)C(C)C)C(C)C)C(=O)NCC(=O)N[C@@H](C(=O)N[C@H](CO)C(=O)N[C@@H](C(=O)N1CCC[C@@H]1C(=O)N[C@H](Cc1ccccc1)C(=O)O)[C@H](C)CC)C(C)C [Peptide D297] (H-GGG[dK][dF][dF][dR][dK][dL][dK][dK][dS][dV][dK][dK][dR][dA][dK][dE][dF][dF][dK][dK][dP][dR][dV][dI]G[dV][dS][dI][dP][dF]-OH)
[15]
  serum stability: stable in serum
[15]; listed as (D)-P297
  serum stability: more stable than (L)-P297
[16]
  cytotoxic activity against mammalian cells: low hemolytic and cytotoxic activity
[17]
  hemolytic activity: low hemolytic and cytotoxic activity

## GGGHTASDAAAAAALTAANAAAAAAASMA [Peptide P292]
[1]
  MIC Pae 27853: >128 μg,/ml
[2]
  MIC Pae 39324: >128 μg,/ml
[3]
  MIC Eco 25922: >128 μg,/ml
[4]
  MIC Sau 29213: >128 μg,/ml
[14]
  CC50: 250 µg/mL

## GGGKLLRKLKKSVKKRAKELLKKPRVIGVSIPL [Peptide P369]
[18]
  potency against P. aeruginosa: more potent peptide

## cathelicidin-BF
[18]
  potency against P. aeruginosa: potent MIC values against multiple P. aeruginosa strains
[16]
  cytotoxic activity against mammalian cells: inability to kill mammalian cells
[17]
  hemolytic activity: low hemolytic activity

B1: actoxumab-D297: sham-conjugate prepared using a non-P. aeruginosa targeting antibody (actoxumab) (conjugate, chains of the INN, looked up)
VH: QVQLVESGGGVVQPGRSLRLSCAASGFSFSNYGMHWVRQAPGKGLEWVALIWYDGSNEDYTDSVKGRFTISRDNSKNTLYLQMNSLRAEDTAVYYCARWGMVRGVIDVFDIWGQGTVVTVSS
VL: DIQMTQSPSSVSASVGDRVTITCRASQGISSWLAWYQHKPGKAPKLLIYAASSLQSGVPSRFSGSGSGTDFTLTISSLQPEDFATYYCQQANSFPWTFGQGTKVEIK
modifications: D297 payload; sham conjugate
[19]
  survival: no survival benefit
